Experimental data from US20040242426A1, “New derivatives of substituted anilined with herbicidal activity” (priority 2001, published 2004).

Key:
Assay type in all cases: in vivo
[1] = system: Panicum dicothomiflorum (PD); assay: Herbicidal activity in pre-emergence; settings: dose 500 g/ha, 28 days after treatment, damage scale 0-5 vs blank
Experimental: (§1) Determination of the herbicidal activity and phytotoxicity in pre-emergence. The herbicidal activity of the compounds of the invention in pre-emergence was evaluated according to the following operating procedure. The vegetable species of interest (weeds or crops) were planted in vases having a diameter of over 10 cm, a height of 10 cm and containing sandy soil. 10 vases were used for each vegetable species. The vases were divided into a further two groups each containing 5 vases for each weed or crop. 24 hours after planting, the vases were dampened with a light shower. An hour after wetting, the first group of vases was treated with a hydro-acetone dispersion containing acetone at 10% v, the product to be evaluated at the desired concentration and Tween 20 at 0.5%. The second group was only treated with a hydroacetone solution containing acetone at 10% by volume and Tween 20 at 0.5%, and was used as a comparison (blank). After the treatment, all the vases were uniformly watered and kept in a conditioned environment under the following environmental conditions: temperature: 24° C. relative humidity: 60% photoperiod: 16 hours light intensity: 10,000 lux 28 days after treatment, the herbicidal activity was evaluated on the basis of the following scale of values referring to the percentage of damage measured on the treated plants with respect to those not treated (blank): Table 3 indicates the results obtained with compounds C-1, C-2 and C-3, evaluated at a dose of 500 g/ha on the following vegetable species: Amarantus retroflexus (AR), Capsella bursa pastoris (CP), Chenopodium album (CA), Galium aparine (GA), Matricaria chamomilla (MC), Papaver rhoeas (PR), Portulaca oleracea (PO), Stellaria media (SM), Alopecurus myosuroides (AM), Panicum dicothomiflorum (PD), maize (M), wheat (F).

Portulaca oleracea (PO) = assay: Herbicidal activity in pre-emergence; settings: dose 500 g/ha, 28 days after treatment, damage scale 0-5 vs blank
Experimental: as §1

[2] = system: Alopecurus myosuroides (AM); assay: Herbicidal activity in pre-emergence; settings: dose 500 g/ha, 28 days after treatment, damage scale 0-5 vs blank
Experimental: as §1

Stellaria media (SM) = assay: Herbicidal activity in pre-emergence; settings: dose 500 g/ha, 28 days after treatment, damage scale 0-5 vs blank
Experimental: as §1

Papaver rhoeas (PR) = assay: Herbicidal activity in pre-emergence; settings: dose 500 g/ha, 28 days after treatment, damage scale 0-5 vs blank
Experimental: as §1

Galium aparine (GA) = assay: Herbicidal activity in pre-emergence; settings: dose 500 g/ha, 28 days after treatment, damage scale 0-5 vs blank
Experimental: as §1

[3] = system: Matricaria chamomilla (MC); assay: Herbicidal activity in pre-emergence; settings: dose 500 g/ha, 28 days after treatment, damage scale 0-5 vs blank
Experimental: as §1

[4] = system: Capsella bursa pastoris (CP); assay: Herbicidal activity in pre-emergence; settings: dose 500 g/ha, 28 days after treatment, damage scale 0-5 vs blank
Experimental: as §1

Chenopodium album (CA) = assay: Herbicidal activity in pre-emergence; settings: dose 500 g/ha, 28 days after treatment, damage scale 0-5 vs blank
Experimental: as §1

[5] = system: Amarantus retroflexus (AR); assay: Herbicidal activity in pre-emergence; settings: dose 500 g/ha, 28 days after treatment, damage scale 0-5 vs blank
Experimental: as §1

wheat (F) = assay: Phytotoxicity in pre-emergence; settings: wheat (crop), dose 500 g/ha, 28 days after treatment, damage scale 0-5 vs blank
Experimental: (§2) Determination of the herbicidal activity and phytotoxicity in pre-emergence. The herbicidal activity of the compounds of the invention in pre-emergence was evaluated according to the following operating procedure. The vegetable species of interest (weeds or crops) were planted in vases having a diameter of over 10 cm, a height of 10 cm and containing sandy soil. 10 vases were used for each vegetable species. The vases were divided into a further two groups each containing 5 vases for each weed or crop. 24 hours after planting, the vases were dampened with a light shower. An hour after wetting, the first group of vases was treated with a hydro-acetone dispersion containing acetone at 10% v, the product to be evaluated at the desired concentration and Tween 20 at 0.5%. The second group was only treated with a hydroacetone solution containing acetone at 10% by volume and Tween 20 at 0.5%, and was used as a comparison (blank). […]

maize (M) = assay: Phytotoxicity in pre-emergence; settings: maize (crop), dose 500 g/ha, 28 days after treatment, damage scale 0-5 vs blank
Experimental: as §2

SMILES	Herbicidal activity in pre-emergence, PD [1]	Herbicidal activity in pre-emergence, PO (Portulaca oleracea (PO))	Herbicidal activity in pre-emergence, AM [2]	Herbicidal activity in pre-emergence, SM (Stellaria media (SM))	Herbicidal activity in pre-emergence, PR (Papaver rhoeas (PR))	Herbicidal activity in pre-emergence, GA (Galium aparine (GA))	Herbicidal activity in pre-emergence, MC [3]	Herbicidal activity in pre-emergence, CP [4]	Herbicidal activity in pre-emergence, CA (Chenopodium album (CA))	Herbicidal activity in pre-emergence, AR [5]	Herbicidal activity (phytotoxicity) in pre-emergence, F (wheat (F))	Herbicidal activity (phytotoxicity) in pre-emergence, M (maize (M))
Cc1ccc(NC(=O)C2CC2)c(OCc2cccc(C(F)(F)F)c2)c1 [C-1, N-[4-methyl-2-(3-trifluoromethylphenyl)-methoxyphenyl]cyclopropanecarboxamide]	5 (5=90% damage—death of the plant)	5 (5=90% damage—death of the plant)	5 (5=90% damage—death of the plant)	5 (5=90% damage—death of the plant)	5 (5=90% damage—death of the plant)	5 (5=90% damage—death of the plant)	5 (5=90% damage—death of the plant)	5 (5=90% damage—death of the plant)	5 (5=90% damage—death of the plant)	5 (5=90% damage—death of the plant)		
Cc1ccc(NC(=O)C2CC2)c(COc2cccc(C(F)(F)F)c2)c1 [C-2, N-[4-methyl-2-(3-trifluoromethylphenoxy)methylphenyl]cyclopropanecarboxamide]	5 (5=90% damage—death of the plant)	5 (5=90% damage—death of the plant)	5 (5=90% damage—death of the plant)	5 (5=90% damage—death of the plant)	5 (5=90% damage—death of the plant)	5 (5=90% damage—death of the plant)	5 (5=90% damage—death of the plant)	5 (5=90% damage—death of the plant)	5 (5=90% damage—death of the plant)	5 (5=90% damage—death of the plant)	0 (0=0-9% damage)	0 (0=0-9% damage)
